# Calls of active or inactive are those of the source. No cut-off for these calls is given here.
# Key:
# [1] = molecular target: T1, Protein deacetylase HDAC6 (Homo sapiens) (UniProt Q9UBN7); assay: Inhibition of full length human recombinant HDAC6 in human MV4-11 cells assessed as acetylation of histone H3 at 5 uM by Western blot analysis; format: cell-based; details: time 6.0 hrs
# T1 sequence (whole entry): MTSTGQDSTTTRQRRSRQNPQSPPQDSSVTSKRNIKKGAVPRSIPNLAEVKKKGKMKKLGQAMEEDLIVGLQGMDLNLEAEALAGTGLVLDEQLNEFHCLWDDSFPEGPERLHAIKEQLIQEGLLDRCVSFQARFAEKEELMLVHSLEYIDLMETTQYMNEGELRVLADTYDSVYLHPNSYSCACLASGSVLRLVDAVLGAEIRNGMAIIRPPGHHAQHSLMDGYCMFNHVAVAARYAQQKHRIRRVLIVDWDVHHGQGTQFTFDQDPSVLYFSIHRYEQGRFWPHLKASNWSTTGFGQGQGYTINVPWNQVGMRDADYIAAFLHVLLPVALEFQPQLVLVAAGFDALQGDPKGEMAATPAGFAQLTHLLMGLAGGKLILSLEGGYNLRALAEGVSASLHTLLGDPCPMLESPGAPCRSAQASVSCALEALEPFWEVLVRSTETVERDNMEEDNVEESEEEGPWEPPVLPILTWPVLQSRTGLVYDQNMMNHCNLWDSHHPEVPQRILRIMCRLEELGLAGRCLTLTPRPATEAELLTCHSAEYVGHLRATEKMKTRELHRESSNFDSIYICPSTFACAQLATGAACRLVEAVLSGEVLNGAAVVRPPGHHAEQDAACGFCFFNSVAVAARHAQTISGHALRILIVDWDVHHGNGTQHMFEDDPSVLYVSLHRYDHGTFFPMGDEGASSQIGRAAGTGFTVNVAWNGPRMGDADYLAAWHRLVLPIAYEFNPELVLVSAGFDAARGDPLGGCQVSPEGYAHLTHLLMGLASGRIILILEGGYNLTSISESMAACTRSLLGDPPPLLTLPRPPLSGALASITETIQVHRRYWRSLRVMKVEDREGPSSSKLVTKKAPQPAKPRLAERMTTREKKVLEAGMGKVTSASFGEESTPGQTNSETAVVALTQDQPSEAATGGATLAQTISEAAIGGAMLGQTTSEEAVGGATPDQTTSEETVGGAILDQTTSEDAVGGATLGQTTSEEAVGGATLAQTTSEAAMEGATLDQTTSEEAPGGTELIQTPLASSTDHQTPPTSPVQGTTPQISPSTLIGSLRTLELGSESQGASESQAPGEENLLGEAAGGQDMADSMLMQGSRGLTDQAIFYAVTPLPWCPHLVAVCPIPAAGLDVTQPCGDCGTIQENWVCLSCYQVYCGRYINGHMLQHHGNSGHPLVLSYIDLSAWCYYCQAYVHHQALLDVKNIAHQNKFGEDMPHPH
# [2] = molecular target: T1, Protein deacetylase HDAC6 (Homo sapiens); assay: Inhibition of full length human recombinant HDAC6 in human HD-MB03 cells assessed as increase in acetylation of alpha tubulin at 53 nM for 6 hrs by western blotting anlaysis; format: cell-based
# [3] = test system: MV4-11; assay: cells; format: functional, cell-based; details: Homo sapiens, MV4-11, 72 h
# [4] = test system: MM1.S; assay: Cytotoxicity against human MM1.S cells assessed as inhibition of cell growth incubated for 72 hrs measured by spectrophotometer analysis; format: functional, cell-based
# [5] = Lipophilicity, logP of the compound; format: physicochemical; details: octanol/water
# [6] = Dissociation constant, pKa of compound; format: physicochemical
# [7] = molecular target: T1, Protein deacetylase HDAC6 (Homo sapiens); assay: Binding affinity to full length human recombinant HDAC6 expressed in Sf9 baculovirus system assessed as residence time (1/koff)
# [8] = molecular target: Histone deacetylase 2 (Homo sapiens, UniProt Q92769); assay: Inhibition of full length human recombinant HDAC2 expressed in Sf9 baculovirus system using FAM-labeled acetylated peptide as substrate by measuring fluorescence intensity by EMSA method
# [9] = molecular target: Histone deacetylase 4 (Homo sapiens, UniProt P56524); assay: Inhibition of full length human recombinant HDAC4 expressed in Sf9 baculovirus system using FAM-labeled acetylated peptide as substrate by measuring fluorescence intensity by EMSA method
# [10] = molecular target: Histone deacetylase 5 (Homo sapiens, UniProt Q9UQL6); assay: Inhibition of full length human recombinant HDAC5 expressed in Sf9 baculovirus system using FAM-labeled acetylated peptide as substrate by measuring fluorescence intensity by EMSA method
# [11] = Cytotoxicity against human fetal neuronal stem cells assessed as inhibition of cell growth incubated for 72 hrs measured by spectrophotometer analysis; format: toxicity, cell-based, NSC
# [12] = Cytotoxicity against primary normal human fibroblast cells assessed as inhibition of cell growth incubated for 72 hrs measured by spectrophotometer analysis; format: toxicity, cell-based
# [13] = Cytotoxicity against HUVEC cells assessed as inhibition of cell growth incubated for 72 hrs measured by spectrophotometer analysis; format: toxicity, cell-based; details: human
# [14] = molecular target: T1, Protein deacetylase HDAC6 (Homo sapiens); assay: Potency index, ratio of test compound residence time to ricolinostat residence time in full length HDAC6-NanoLuc fusion protein (unknown origin) expressed in HeLa cells by NanoBRET assay; format: cell-based
# [15] = molecular target: T1, Protein deacetylase HDAC6 (Homo sapiens); assay: Potency index, ratio of test compound residence time to KT-531 residence time in full length HDAC6-NanoLuc fusion protein (unknown origin) expressed in HeLa cells by NanoBRET assay; format: cell-based; details: time 5.0 min
# [16] = molecular target: T1, Protein deacetylase HDAC6 (Homo sapiens); assay: Inhibition of full length human recombinant HDAC6 in human MV4-11 cells assessed as increase in acetylation of alpha-tubulin at 0.1 uM for 6 hrs by Western blot analysis; format: cell-based
# [17] = test system: MV4-11; assay: Induction of apoptosis in human MV4-11 cells assessed as viable cells at 0.25 uM after 24 hrs by Annexin V/PI staining based flow cytometric analysis (Rvb=58.28%); format: functional; details: read-out: Activity
# [18] = test system: MV4-11; assay: Induction of apoptosis in human MV4-11 cells assessed as early apoptotic cells at 0.25 uM after 24 hrs by Annexin V/PI staining based flow cytometric analysis (Rvb=2%); format: functional
# [19] = test system: MV4-11; assay: Induction of apoptosis in human MV4-11 cells assessed as late apoptotic cells at 0.25 uM after 24 hrs by Annexin V/PI staining based flow cytometric analysis (Rvb=8.13%); format: functional
# [20] = test system: MV4-11; assay: Induction of apoptosis in human MV4-11 cells assessed as early apoptotic cells at 0.75 uM after 24 hrs by Annexin V/PI staining based flow cytometric analysis (Rvb=2%); format: functional
# [21] = test system: MV4-11; assay: Induction of apoptosis in human MV4-11 cells assessed as late apoptotic cells at 0.75 uM after 24 hrs by Annexin V/PI staining based flow cytometric analysis (Rvb=2%); format: functional
# [22] = test system: MV4-11; assay: Induction of apoptosis in human MV4-11 cells assessed as early apoptotic cells at 1 uM after 24 hrs by Annexin V/PI staining based flow cytometric analysis (Rvb=2%); format: functional
# [23] = Cytotoxicity against human HD-MB03 cells assessed as inhibition of cell growth incubated for 72 hrs measured by spectrophotometer analysis; format: functional, cell-based; details: HD-MB03, 72 h
# [24] = test system: HD-MB03; assay: Antiproliferative activity against human HD-MB03 cells at 964 nM after 4 hrs by microplate reader method; format: functional, cell-based
# [25] = Stability in human plasma assessed as half life measured upto 60 mins by LC-MS/MS analysis; format: ADME, cell-free
# [26] = in vitro; details: human, MRC9 cells
# Histone deacetylase 2, sequence (Q92769 whole entry): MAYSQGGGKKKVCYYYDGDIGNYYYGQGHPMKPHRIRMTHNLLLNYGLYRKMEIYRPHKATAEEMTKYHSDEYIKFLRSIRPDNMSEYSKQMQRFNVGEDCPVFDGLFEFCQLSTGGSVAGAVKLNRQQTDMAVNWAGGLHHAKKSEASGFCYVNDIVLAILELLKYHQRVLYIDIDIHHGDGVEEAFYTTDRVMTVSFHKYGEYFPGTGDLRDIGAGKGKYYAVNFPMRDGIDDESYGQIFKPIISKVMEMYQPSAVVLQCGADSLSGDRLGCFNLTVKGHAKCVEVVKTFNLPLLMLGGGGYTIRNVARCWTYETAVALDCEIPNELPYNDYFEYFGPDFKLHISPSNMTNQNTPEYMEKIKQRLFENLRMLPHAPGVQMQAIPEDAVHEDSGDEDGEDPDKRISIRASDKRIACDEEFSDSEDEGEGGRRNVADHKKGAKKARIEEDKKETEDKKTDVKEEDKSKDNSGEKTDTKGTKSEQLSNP
# Histone deacetylase 4, sequence (P56524 whole entry): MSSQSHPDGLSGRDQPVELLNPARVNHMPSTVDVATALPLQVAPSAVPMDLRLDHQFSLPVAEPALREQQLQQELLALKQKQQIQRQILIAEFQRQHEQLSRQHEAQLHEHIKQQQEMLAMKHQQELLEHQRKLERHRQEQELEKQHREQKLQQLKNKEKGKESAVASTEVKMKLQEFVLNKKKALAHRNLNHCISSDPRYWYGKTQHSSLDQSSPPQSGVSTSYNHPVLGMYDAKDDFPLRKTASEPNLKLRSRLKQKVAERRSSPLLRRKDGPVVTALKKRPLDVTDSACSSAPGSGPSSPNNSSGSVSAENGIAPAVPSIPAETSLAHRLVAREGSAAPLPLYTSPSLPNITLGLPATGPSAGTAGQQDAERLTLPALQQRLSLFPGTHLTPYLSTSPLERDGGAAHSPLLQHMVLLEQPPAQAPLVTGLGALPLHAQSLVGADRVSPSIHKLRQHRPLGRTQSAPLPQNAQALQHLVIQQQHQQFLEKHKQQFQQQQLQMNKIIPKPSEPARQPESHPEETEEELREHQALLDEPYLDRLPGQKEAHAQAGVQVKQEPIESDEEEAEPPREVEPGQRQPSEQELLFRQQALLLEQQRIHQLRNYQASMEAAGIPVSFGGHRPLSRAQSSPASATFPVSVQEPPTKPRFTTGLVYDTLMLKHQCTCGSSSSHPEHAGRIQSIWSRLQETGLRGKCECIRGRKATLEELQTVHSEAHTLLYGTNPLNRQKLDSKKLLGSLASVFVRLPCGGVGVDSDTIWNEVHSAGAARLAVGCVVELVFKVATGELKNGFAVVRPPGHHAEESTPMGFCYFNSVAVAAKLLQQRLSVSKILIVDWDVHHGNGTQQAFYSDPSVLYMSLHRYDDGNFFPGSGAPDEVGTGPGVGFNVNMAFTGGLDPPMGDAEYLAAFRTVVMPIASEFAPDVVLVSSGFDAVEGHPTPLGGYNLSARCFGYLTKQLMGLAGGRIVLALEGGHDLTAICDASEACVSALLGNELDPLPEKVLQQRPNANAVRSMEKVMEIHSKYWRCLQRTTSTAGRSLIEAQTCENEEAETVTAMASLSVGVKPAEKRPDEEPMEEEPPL
# Histone deacetylase 5, sequence (Q9UQL6 whole entry): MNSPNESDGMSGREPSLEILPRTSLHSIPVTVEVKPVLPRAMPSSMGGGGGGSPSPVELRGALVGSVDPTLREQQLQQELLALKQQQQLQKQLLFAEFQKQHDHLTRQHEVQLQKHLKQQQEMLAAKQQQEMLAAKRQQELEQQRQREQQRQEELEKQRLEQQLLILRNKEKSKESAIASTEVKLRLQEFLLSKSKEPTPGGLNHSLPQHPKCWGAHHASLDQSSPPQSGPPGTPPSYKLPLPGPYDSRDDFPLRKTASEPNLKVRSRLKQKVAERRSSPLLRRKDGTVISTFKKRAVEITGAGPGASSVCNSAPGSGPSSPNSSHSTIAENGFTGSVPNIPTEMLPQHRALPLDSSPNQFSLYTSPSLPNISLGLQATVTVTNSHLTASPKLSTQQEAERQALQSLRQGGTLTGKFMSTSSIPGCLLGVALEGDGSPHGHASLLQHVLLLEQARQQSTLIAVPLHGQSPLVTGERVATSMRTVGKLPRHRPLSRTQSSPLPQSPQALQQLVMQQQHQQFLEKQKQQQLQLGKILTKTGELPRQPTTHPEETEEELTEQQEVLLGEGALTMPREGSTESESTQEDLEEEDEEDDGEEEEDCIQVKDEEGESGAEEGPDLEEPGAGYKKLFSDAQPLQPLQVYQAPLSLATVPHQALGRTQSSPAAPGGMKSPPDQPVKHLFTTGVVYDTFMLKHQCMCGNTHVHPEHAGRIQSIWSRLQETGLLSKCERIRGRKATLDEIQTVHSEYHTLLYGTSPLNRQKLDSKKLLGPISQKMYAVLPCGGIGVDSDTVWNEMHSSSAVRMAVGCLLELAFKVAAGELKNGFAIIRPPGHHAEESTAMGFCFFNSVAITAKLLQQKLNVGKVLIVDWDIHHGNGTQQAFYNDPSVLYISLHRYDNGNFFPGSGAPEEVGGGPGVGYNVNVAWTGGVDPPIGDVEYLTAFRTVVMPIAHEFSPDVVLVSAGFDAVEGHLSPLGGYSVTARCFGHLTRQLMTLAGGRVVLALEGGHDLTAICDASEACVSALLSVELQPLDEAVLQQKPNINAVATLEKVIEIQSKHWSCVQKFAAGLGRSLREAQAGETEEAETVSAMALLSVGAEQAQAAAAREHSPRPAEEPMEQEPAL
compound,measurement,setting,value
CC(C)N(Cc1ccc(C(=O)NO)cc1)S(=O)(=O)c1cc(F)c(F)c(F)c1F,inhibition,[1],Active
same,inhibition,[2],Active
same,IC50,[3],1.19 µM
same,IC50,[4],1.38 µM
same,logP,[5],3.41
same,pKa,[6],8.77
same,TIME,[7],0.133 h
same,IC50,[8],0.316 µM
same,IC50,[9],> 4 µM
same,IC50,[10],> 3 µM
same,IC50 at 72 h,[11],5.76 µM
same,IC50 at 72 h,[12],12.4 µM
same,IC50 at 72 h,[13],10.1 µM
same,fold change (FC),[14],2
same,fold change (FC),[15],1.9
same,inhibition,[16],Active
same,viability at 0.25 µM,[17],82%
same,Activity,[18],3.6%
same,Activity,[19],9%
same,Activity,[20],2.28%
same,Activity,[21],7.81%
same,Activity,[22],3.32%
same,IC50,[23],0.13 µM
same,Activity,[24],Active
same,half-life,[25],1.92 h
same,IC50 at 72 h,[26],> 50 µM

# — ChEMBL document CHEMBL5154721, “Discovery of HDAC6-Selective Inhibitor NN-390 with in Vitro Efficacy in Group 3 Medulloblastoma” (J Med Chem, 2022)
